Data published in the kinase profiling compilation of Christmann-Franck et al. (2016).
Several values for one entry are separate records, joined by “and”; a condition that tells them apart may be missing. Identical values can stand only once.

Key:
Test in all cases: KINOMEscan competition binding
Conditions in all cases: compound 10.0 µM
AURKC (human) = AURKC (human) (UniProt Q9UQB9)
CAMK2G (human) = CAMK2G (human) (UniProt Q13555)
CDK17 (human) = CDK17 (human) (UniProt Q00537)
EPHB1 (human) = EPHB1 (human) (UniProt P54762)
ERBB4 (human) = ERBB4 (human) (UniProt Q15303)
FGFR1 (human) = FGFR1 (human) (UniProt P11362)
FRK (human) = FRK (human) (UniProt P42685)
HCK (human) = HCK (human) (UniProt P08631)
HIPK1 (human) = HIPK1 (human) (UniProt Q86Z02)
[1] = target: JAK1 JH2 pseudokinase (human) (UniProt P23458)
MAP3K11 (human) = MAP3K11 (human) (UniProt Q16584)
MAP3K9 (human) = MAP3K9 (human) (UniProt P80192)
MAPK11 (human) = MAPK11 (human) (UniProt Q15759)
MAPKAPK5 (human) = MAPKAPK5 (human) (UniProt Q8IW41)
MARK3 (human) = MARK3 (human) (UniProt P27448)
[2] = tested on: MET (human), P08581 [Y1235D]
MKNK2 (human) = MKNK2 (human) (UniProt Q9HBH9)
MLTK (human) = MLTK (human) (UniProt Q9NYL2)
MTOR (human) = MTOR (human) (UniProt P42345)
MYLK (human) = MYLK (human) (UniProt Q15746)
MYLK4 (human) = MYLK4 (human) (UniProt Q86YV6)
NUAK1 (human) = NUAK1 (human) (UniProt O60285)
PAK7 (human) = PAK7 (human) (UniProt Q9P286)
PHKG2 (human) = PHKG2 (human) (UniProt P15735)
PIK3CD (human) = PIK3CD (human) (UniProt O00329)
PRKX (human) = PRKX (human) (UniProt P51817)
RAF1 (human) = RAF1 (human) (UniProt P04049)
RIPK1 (human) = RIPK1 (human) (UniProt Q13546)
ROS1 (human) = ROS1 (human) (UniProt P08922)
SGK3 (human) = SGK3 (human) (UniProt Q96BR1)
SLK (human) = SLK (human) (UniProt Q9H2G2)
STK3 (human) = STK3 (human) (UniProt Q13188)
STK35 (human) = STK35 (human) (UniProt Q8TDR2)
STK36 (human) = STK36 (human) (UniProt Q9NRP7)
TAOK1 (human) = TAOK1 (human) (UniProt Q7L7X3)
TAOK2 (human) = TAOK2 (human) (UniProt Q9UL54)
TIE1 (human) = TIE1 (human) (UniProt P35590)
TNIK (human) = TNIK (human) (UniProt Q9UKE5)
TNNI3K (human) = TNNI3K (human) (UniProt Q59H18)
TRPM6 (human) = TRPM6 (human) (UniProt Q9BX84)

Chain of SGK3 (human) (Q96BR1 whole entry, looked up): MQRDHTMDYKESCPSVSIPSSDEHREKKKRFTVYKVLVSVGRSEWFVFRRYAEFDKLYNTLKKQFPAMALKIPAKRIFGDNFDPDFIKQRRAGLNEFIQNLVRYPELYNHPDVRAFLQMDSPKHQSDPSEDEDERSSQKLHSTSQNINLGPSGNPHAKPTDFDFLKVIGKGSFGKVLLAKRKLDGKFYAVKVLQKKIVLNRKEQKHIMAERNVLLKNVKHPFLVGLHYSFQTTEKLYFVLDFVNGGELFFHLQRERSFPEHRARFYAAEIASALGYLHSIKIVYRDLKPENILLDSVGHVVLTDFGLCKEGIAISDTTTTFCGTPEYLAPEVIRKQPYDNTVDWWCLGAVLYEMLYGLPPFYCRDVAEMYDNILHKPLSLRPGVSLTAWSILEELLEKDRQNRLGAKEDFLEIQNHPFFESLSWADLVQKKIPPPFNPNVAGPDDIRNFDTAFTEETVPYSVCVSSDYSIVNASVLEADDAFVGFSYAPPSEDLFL
Chain of TNIK (human) (Q9UKE5 whole entry, looked up): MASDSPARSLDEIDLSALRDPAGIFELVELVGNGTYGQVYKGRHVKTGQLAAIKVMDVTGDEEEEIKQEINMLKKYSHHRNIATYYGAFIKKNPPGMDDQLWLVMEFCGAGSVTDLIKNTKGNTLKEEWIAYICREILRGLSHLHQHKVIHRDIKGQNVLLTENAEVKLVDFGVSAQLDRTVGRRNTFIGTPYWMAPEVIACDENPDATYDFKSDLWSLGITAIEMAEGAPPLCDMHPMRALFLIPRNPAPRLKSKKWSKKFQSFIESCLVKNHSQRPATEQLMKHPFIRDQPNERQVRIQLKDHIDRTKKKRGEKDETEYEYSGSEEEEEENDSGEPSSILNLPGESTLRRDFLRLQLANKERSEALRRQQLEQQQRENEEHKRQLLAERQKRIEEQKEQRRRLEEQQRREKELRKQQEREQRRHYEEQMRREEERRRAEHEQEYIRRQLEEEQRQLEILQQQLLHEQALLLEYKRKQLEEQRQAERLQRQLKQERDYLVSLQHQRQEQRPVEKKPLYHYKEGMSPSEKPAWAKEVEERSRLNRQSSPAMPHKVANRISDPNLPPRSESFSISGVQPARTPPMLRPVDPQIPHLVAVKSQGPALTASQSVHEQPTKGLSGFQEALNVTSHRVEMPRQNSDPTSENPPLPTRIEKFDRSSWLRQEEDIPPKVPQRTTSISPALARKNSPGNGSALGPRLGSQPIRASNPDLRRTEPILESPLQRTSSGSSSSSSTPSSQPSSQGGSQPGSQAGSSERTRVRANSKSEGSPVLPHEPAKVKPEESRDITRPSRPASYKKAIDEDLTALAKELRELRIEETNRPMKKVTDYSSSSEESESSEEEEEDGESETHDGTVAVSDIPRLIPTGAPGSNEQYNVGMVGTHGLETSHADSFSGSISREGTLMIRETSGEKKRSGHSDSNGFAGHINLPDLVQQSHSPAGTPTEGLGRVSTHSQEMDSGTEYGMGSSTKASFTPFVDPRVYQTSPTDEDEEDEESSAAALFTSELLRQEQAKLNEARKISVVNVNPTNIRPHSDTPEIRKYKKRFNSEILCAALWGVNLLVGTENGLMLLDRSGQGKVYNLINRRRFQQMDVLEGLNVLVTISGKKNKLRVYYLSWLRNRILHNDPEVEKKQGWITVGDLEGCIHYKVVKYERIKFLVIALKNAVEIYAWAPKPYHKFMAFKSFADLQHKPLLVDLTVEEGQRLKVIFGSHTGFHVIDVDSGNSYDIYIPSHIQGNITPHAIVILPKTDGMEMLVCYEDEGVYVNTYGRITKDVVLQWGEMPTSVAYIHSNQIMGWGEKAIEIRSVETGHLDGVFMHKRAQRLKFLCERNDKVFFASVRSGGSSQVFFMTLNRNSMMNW
Chain of MAP3K11 (human) (Q16584 whole entry, looked up): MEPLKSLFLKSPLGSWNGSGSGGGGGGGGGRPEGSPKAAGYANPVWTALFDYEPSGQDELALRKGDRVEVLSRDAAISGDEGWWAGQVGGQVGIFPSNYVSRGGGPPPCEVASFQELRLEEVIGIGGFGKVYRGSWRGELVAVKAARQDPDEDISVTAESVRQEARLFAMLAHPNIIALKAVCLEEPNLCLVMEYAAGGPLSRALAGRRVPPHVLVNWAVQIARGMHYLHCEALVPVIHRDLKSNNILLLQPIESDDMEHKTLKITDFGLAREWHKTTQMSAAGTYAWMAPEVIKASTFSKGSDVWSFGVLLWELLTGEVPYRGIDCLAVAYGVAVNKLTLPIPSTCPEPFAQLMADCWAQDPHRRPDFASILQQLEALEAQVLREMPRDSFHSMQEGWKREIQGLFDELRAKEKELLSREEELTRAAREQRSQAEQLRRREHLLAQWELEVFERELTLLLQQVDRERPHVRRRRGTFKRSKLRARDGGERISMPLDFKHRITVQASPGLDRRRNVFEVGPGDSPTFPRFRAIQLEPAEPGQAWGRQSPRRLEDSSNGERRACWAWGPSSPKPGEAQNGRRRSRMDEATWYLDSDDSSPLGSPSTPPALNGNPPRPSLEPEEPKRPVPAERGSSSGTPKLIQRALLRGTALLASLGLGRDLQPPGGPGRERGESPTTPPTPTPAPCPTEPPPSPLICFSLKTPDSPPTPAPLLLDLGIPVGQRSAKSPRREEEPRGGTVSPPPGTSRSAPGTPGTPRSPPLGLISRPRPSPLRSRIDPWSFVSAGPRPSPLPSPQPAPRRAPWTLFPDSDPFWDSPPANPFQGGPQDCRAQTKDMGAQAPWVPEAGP
Chain of PAK7 (human) (Q9P286 whole entry, looked up): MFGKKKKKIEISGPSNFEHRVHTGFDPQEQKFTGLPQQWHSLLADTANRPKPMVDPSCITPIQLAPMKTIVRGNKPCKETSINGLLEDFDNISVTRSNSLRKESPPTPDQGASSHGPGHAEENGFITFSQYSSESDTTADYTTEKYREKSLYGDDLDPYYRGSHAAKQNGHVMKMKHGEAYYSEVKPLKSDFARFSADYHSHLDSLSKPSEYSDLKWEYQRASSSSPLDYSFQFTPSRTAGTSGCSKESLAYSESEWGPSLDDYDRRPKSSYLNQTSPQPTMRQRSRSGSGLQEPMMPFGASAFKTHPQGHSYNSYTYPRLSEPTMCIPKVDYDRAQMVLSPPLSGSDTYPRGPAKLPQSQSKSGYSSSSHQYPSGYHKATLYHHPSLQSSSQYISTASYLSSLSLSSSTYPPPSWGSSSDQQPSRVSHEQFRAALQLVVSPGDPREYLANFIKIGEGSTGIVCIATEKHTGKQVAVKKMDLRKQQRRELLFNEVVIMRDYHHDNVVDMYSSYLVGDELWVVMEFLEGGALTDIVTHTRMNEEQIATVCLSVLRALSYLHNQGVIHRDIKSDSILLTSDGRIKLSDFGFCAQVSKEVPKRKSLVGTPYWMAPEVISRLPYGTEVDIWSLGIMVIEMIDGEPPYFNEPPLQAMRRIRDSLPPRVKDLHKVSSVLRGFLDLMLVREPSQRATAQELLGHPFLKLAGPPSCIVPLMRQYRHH
Chain of FGFR1 (human) (P11362 whole entry, looked up): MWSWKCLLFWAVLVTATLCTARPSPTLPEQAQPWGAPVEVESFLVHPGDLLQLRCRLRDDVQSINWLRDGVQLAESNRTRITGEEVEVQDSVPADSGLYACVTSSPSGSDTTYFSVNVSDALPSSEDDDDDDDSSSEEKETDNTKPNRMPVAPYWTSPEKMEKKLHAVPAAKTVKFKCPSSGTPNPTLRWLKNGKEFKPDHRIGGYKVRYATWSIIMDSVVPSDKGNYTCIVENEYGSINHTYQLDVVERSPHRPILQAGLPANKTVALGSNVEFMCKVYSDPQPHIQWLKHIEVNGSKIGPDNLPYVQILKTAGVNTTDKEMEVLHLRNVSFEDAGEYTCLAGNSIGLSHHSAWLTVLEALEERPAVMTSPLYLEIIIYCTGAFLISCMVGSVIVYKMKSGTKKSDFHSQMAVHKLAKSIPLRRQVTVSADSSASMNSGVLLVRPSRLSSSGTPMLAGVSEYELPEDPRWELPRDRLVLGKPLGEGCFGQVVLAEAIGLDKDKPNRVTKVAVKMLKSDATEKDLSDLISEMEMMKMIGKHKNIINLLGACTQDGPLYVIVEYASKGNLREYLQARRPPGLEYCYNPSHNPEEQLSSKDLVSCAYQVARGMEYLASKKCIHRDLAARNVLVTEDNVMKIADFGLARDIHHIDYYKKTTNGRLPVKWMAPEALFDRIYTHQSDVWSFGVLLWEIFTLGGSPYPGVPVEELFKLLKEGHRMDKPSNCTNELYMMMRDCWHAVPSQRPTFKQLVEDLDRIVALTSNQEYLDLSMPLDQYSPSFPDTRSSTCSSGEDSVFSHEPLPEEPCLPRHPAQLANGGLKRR
Chain of MLTK (human) (Q9NYL2 whole entry, looked up): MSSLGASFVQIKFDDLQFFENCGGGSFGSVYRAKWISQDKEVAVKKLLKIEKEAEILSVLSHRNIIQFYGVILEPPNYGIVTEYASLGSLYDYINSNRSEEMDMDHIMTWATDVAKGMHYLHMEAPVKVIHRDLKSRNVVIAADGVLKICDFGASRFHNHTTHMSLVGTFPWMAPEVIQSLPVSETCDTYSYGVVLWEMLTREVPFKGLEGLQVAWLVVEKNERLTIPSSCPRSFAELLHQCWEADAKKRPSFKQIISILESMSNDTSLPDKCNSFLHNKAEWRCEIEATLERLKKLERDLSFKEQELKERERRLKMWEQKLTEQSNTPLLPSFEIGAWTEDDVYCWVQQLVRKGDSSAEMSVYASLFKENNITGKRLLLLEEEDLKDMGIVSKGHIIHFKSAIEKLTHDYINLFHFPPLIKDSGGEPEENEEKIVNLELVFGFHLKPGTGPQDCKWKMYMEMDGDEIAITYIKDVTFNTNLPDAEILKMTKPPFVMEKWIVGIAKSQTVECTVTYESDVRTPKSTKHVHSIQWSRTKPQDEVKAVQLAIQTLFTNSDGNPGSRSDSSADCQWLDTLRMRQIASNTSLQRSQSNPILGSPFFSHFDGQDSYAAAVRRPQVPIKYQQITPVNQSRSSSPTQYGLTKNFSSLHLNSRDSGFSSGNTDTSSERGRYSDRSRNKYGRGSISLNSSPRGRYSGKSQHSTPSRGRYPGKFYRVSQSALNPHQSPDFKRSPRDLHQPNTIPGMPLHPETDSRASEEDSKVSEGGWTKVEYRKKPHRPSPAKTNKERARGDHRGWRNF

Question: What does the source list for `O=C(Nc1cccc(Nc2ncc(Br)c(NCCc3cnc[nH]3)n2)c1)N1CCCC1`?
Answer: kinase still bound, per cent of control (AURKC (human)): 0%; kinase still bound, per cent of control (CAMK2G (human)): 52%; kinase still bound, per cent of control (CDK17 (human)): 77%; kinase still bound, per cent of control (EPHB1 (human)): 85%; kinase still bound, per cent of control (ERBB4 (human)): 56%; kinase still bound, per cent of control (FGFR1 (human)): 0.25%; kinase still bound, per cent of control (FRK (human)): 46%; kinase still bound, per cent of control (HCK (human)): 42%; kinase still bound, per cent of control (HIPK1 (human)): 1.2%; kinase still bound, per cent of control [1]: 0.2%; kinase still bound, per cent of control (MAP3K11 (human)): 0.75%; kinase still bound, per cent of control (MAP3K9 (human)): 0.45%; kinase still bound, per cent of control (MAPK11 (human)): 90%; kinase still bound, per cent of control (MAPKAPK5 (human)): 28%; kinase still bound, per cent of control (MARK3 (human)): 0.3%; kinase still bound, per cent of control [2]: 2.4%; kinase still bound, per cent of control (MKNK2 (human)): 0.1%; kinase still bound, per cent of control (MLTK (human)): 12%; kinase still bound, per cent of control (MTOR (human)): 87%; kinase still bound, per cent of control (MYLK (human)): 34%; kinase still bound, per cent of control (MYLK4 (human)): 6.8%; kinase still bound, per cent of control (NUAK1 (human)): 0%; kinase still bound, per cent of control (PAK7 (human)): 1.6%; kinase still bound, per cent of control (PHKG2 (human)): 8.9%; kinase still bound, per cent of control (PIK3CD (human)): 84%; kinase still bound, per cent of control (PRKX (human)): 0.2%; kinase still bound, per cent of control (RAF1 (human)): 100%; kinase still bound, per cent of control (RIPK1 (human)): 18%; kinase still bound, per cent of control (ROS1 (human)): 97%; kinase still bound, per cent of control (SGK3 (human)): 91%; kinase still bound, per cent of control (SLK (human)): 0.35%; kinase still bound, per cent of control (STK3 (human)): 0.45%; kinase still bound, per cent of control (STK35 (human)): 67%; kinase still bound, per cent of control (STK36 (human)): 18%; kinase still bound, per cent of control (TAOK1 (human)): 0.25%; kinase still bound, per cent of control (TAOK2 (human)): 5.3%; kinase still bound, per cent of control (TIE1 (human)): 2.2%; kinase still bound, per cent of control (TNIK (human)): 0.8%; kinase still bound, per cent of control (TNNI3K (human)): 28%; kinase still bound, per cent of control (TRPM6 (human)): 76%

Question: What does the source list for `O=C1NC(=O)/C(=C/c2ccc3nccc(-c4ccncc4)c3c2)S1`?
Answer: kinase still bound, per cent of control (AURKC (human)): 56%; kinase still bound, per cent of control (CAMK2G (human)): 28%; kinase still bound, per cent of control (CDK17 (human)): 59%; kinase still bound, per cent of control (EPHB1 (human)): 90%; kinase still bound, per cent of control (ERBB4 (human)): 65%; kinase still bound, per cent of control (FGFR1 (human)): 81%; kinase still bound, per cent of control (FRK (human)): 81%; kinase still bound, per cent of control (HCK (human)): 75%; kinase still bound, per cent of control (HIPK1 (human)): 6.9%; kinase still bound, per cent of control [1]: 57%; kinase still bound, per cent of control (MAP3K11 (human)): 98%; kinase still bound, per cent of control (MAP3K9 (human)): 76%; kinase still bound, per cent of control (MAPK11 (human)): 86%; kinase still bound, per cent of control (MAPKAPK5 (human)): 0.2%; kinase still bound, per cent of control (MARK3 (human)): 100%; kinase still bound, per cent of control [2]: 94%; kinase still bound, per cent of control (MKNK2 (human)): 49%; kinase still bound, per cent of control (MLTK (human)): 16%; kinase still bound, per cent of control (MTOR (human)): 5%; kinase still bound, per cent of control (MYLK (human)): 19%; kinase still bound, per cent of control (MYLK4 (human)): 2.2%; kinase still bound, per cent of control (NUAK1 (human)): 100%; kinase still bound, per cent of control (PAK7 (human)): 91%; kinase still bound, per cent of control (PHKG2 (human)): 6%; kinase still bound, per cent of control (PIK3CD (human)): 4.8%; kinase still bound, per cent of control (PRKX (human)): 19%; kinase still bound, per cent of control (RAF1 (human)): 47%; kinase still bound, per cent of control (RIPK1 (human)): 100%; kinase still bound, per cent of control (ROS1 (human)): 78%; kinase still bound, per cent of control (SGK3 (human)): 66% and 84%; kinase still bound, per cent of control (SLK (human)): 0.3%; kinase still bound, per cent of control (STK3 (human)): 54%; kinase still bound, per cent of control (STK35 (human)): 49%; kinase still bound, per cent of control (STK36 (human)): 89%; kinase still bound, per cent of control (TAOK1 (human)): 3%; kinase still bound, per cent of control (TAOK2 (human)): 50%; kinase still bound, per cent of control (TIE1 (human)): 100%; kinase still bound, per cent of control (TNIK (human)): 36%; kinase still bound, per cent of control (TNNI3K (human)): 79%; kinase still bound, per cent of control (TRPM6 (human)): 97%
